Experimental data taken from PubChem BioAssay (NCI).
Values joined by “and” are separate entries in the source; they are usually repeats but may differ in a detail not shown here. Equal values may be shown once.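 Results reflect a 48-hour exposure of cells in 96-well plates to compound at five concentrations. GI50 is the concentration that inhibits growth by half. TGI marks complete inhibition of growth.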

Columns and labels:
Assay in all cases: NCI tumour cell line growth inhibition, 48 h; in the data active means GI50 below about 0.43 µM; inactive means the rest
HOP-92 NSCLC = test system: HOP-92 NSCLC
UACC-257 melanoma = test system: UACC-257 melanoma
UO-31 renal = test system: UO-31 renal
786-0 renal = test system: 786-0 renal
LXFL 529 NSCLC = test system: LXFL 529 NSCLC
HCT-116 colon = test system: HCT-116 colon
NCI-H460 lung = test system: NCI-H460 lung
HOP-18 NSCLC = test system: HOP-18 NSCLC
M19-MEL melanoma = test system: M19-MEL melanoma
LOX IMVI melanoma = test system: LOX IMVI melanoma
CCRF-CEM leukemia = test system: CCRF-CEM leukemia
SK-MEL-2 melanoma = test system: SK-MEL-2 melanoma
SF-268 CNS = test system: SF-268 CNS
NCI-H226 lung = test system: NCI-H226 lung
HCC-2998 colon = test system: HCC-2998 colon
HL-60(TB) leukemia = test system: HL-60(TB) leukemia
SF-295 CNS = test system: SF-295 CNS
RXF 393 renal = test system: RXF 393 renal
MOLT-4 leukemia = test system: MOLT-4 leukemia
IGROV1 ovarian = test system: IGROV1 ovarian
OVCAR-8 ovarian = test system: OVCAR-8 ovarian
HOP-62 NSCLC = test system: HOP-62 NSCLC
A549 NSCLC = test system: A549 NSCLC
UACC-62 melanoma = test system: UACC-62 melanoma
SK-MEL-5 melanoma = test system: SK-MEL-5 melanoma
SNB-75 CNS = test system: SNB-75 CNS
NCI-H23 lung = test system: NCI-H23 lung
M14 melanoma = test system: M14 melanoma
DMS 114 small cell lung = test system: DMS 114 small cell lung
XF 498 CNS = test system: XF 498 CNS
MALME-3M melanoma = test system: MALME-3M melanoma
KM20L2 colon = test system: KM20L2 colon
DLD-1 colon = test system: DLD-1 colon
SF-539 CNS = test system: SF-539 CNS
SK-MEL-28 melanoma = test system: SK-MEL-28 melanoma
HCT-15 colon = test system: HCT-15 colon
OVCAR-4 ovarian = test system: OVCAR-4 ovarian
CAKI-1 renal = test system: CAKI-1 renal
KM12 colon = test system: KM12 colon
COLO 205 colon = test system: COLO 205 colon
HT29 colon = test system: HT29 colon
EKVX NSCLC = test system: EKVX NSCLC
SW-620 colon = test system: SW-620 colon
SNB-19 CNS = test system: SNB-19 CNS
NCI-H522 lung = test system: NCI-H522 lung
DMS 273 small cell lung = test system: DMS 273 small cell lung
SR leukemia = test system: SR leukemia
ACHN renal = test system: ACHN renal
OVCAR-3 ovarian = test system: OVCAR-3 ovarian
SK-OV-3 ovarian = test system: SK-OV-3 ovarian
RXF-631 renal = test system: RXF-631 renal
TK-10 renal = test system: TK-10 renal
SN12C renal = test system: SN12C renal
BT-549 breast = test system: BT-549 breast
P388 leukemia = test system: P388 leukemia
SNB-78 CNS = test system: SNB-78 CNS
P388/ADR leukemia = test system: P388/ADR leukemia
SN12K1 renal = test system: SN12K1 renal
U251 CNS = test system: U251 CNS
A498 renal = test system: A498 renal
K-562 leukemia = test system: K-562 leukemia
OVCAR-5 ovarian = test system: OVCAR-5 ovarian

Cc1cccc(NC(=O)/C(=N\N)C(c2cnc3ccc([N+](=O)[O-])cc3n2)[N+](=O)[O-])c1C (centres undefined)
> 100 µM: TGI (HOP-92 NSCLC) | TGI (UACC-257 melanoma) | TGI (UO-31 renal) | TGI (786-0 renal) | TGI (LXFL 529 NSCLC) | TGI (HCT-116 colon) | TGI (NCI-H460 lung) | TGI (HOP-18 NSCLC) | TGI (M19-MEL melanoma) | TGI (LOX IMVI melanoma) | TGI (CCRF-CEM leukemia) | TGI (SK-MEL-2 melanoma) | TGI (SF-268 CNS) | TGI (NCI-H226 lung) | TGI (HCC-2998 colon) | TGI (HL-60(TB) leukemia) | TGI (SF-295 CNS) | TGI (RXF 393 renal) | TGI (MOLT-4 leukemia) | TGI (IGROV1 ovarian) | TGI (OVCAR-8 ovarian) | TGI (HOP-62 NSCLC) | TGI (A549 NSCLC) | TGI (UACC-62 melanoma) | TGI (SK-MEL-5 melanoma) | TGI (SNB-75 CNS) | TGI (NCI-H23 lung) | TGI (M14 melanoma) | TGI (DMS 114 small cell lung) | TGI (XF 498 CNS) | TGI (MALME-3M melanoma) | TGI (KM20L2 colon) | TGI (DLD-1 colon) | TGI (SF-539 CNS) | TGI (SK-MEL-28 melanoma) | TGI (HCT-15 colon) | TGI (OVCAR-4 ovarian) | TGI (CAKI-1 renal) | TGI (KM12 colon) | TGI (COLO 205 colon) | TGI (HT29 colon) | TGI (EKVX NSCLC) | TGI (SW-620 colon) | TGI (SNB-19 CNS) | TGI (NCI-H522 lung) | TGI (DMS 273 small cell lung) | TGI (SR leukemia) | TGI (ACHN renal) | TGI (OVCAR-3 ovarian) | TGI (SK-OV-3 ovarian) | TGI (RXF-631 renal) | TGI (TK-10 renal) | TGI (SN12C renal)

COc1ccc(CC2C(=O)NC(C)C(=O)N(C)C3C(=O)N(C)C(Cc4ccc(O)c(c4)Oc4ccc(cc4)C3O)C(=O)NC(C)C(=O)NC(C)C(=O)N2C)cc1 (centres undefined)
0.0206 µM and 0.0428 µM: TGI (DMS 114 small cell lung)
0.0238 µM and 0.0257 µM: TGI (NCI-H226 lung)
0.0283 µM and 0.0918 µM and 0.0269 µM: TGI (HOP-92 NSCLC)
0.0663 µM and 0.032 µM: TGI (UACC-257 melanoma)
0.0557 µM and 0.0341 µM: TGI (NCI-H23 lung)
0.35 µM and 0.471 µM: TGI (KM20L2 colon)
0.0411 µM and 0.0264 µM: TGI (SNB-78 CNS)
0.13 µM and 0.0543 µM: TGI (M19-MEL melanoma)
3.45 µM and 0.581 µM: TGI (DLD-1 colon)
0.0435 µM and 0.0401 µM: TGI (HOP-18 NSCLC)
0.0179 µM and 0.0313 µM: TGI (XF 498 CNS)
0.117 µM and 0.0522 µM: TGI (DMS 273 small cell lung)
0.0321 µM and 0.0342 µM: TGI (SN12K1 renal)
active: GI50 (HOP-92 NSCLC) 0.00303 µM | GI50 (UACC-257 melanoma) 0.016 µM | GI50 (P388 leukemia) 0.0149 µM | GI50 (HOP-18 NSCLC) 0.0184 µM | GI50 (M19-MEL melanoma) 0.00708 µM | GI50 (NCI-H226 lung) 0.0125 µM | GI50 (SNB-78 CNS) 0.0125 µM | GI50 (NCI-H23 lung) 0.00711 µM | GI50 (DMS 114 small cell lung) 0.0128 µM | GI50 (XF 498 CNS) 0.00238 µM | GI50 (DLD-1 colon) 0.0409 µM | GI50 (DMS 273 small cell lung) 0.0215 µM | GI50 (SN12K1 renal) 0.0135 µM
0.01 µM: TGI (BT-549 breast)
0.0792 µM and 0.175 µM: TGI (P388 leukemia)
8.52 µM and 12.7 µM: TGI (P388/ADR leukemia)

COC(=O)C(C(=O)C(=O)Nc1ccc([N+](=O)[O-])cc1)c1nc2ccc([N+](=O)[O-])cc2[nH]c1=O (centres undefined)
> 100 µM: TGI (HOP-92 NSCLC) | TGI (UACC-257 melanoma) | TGI (UO-31 renal) | TGI (786-0 renal) | TGI (LXFL 529 NSCLC) | TGI (HCT-116 colon) | TGI (NCI-H460 lung) | TGI (HOP-18 NSCLC) | TGI (M19-MEL melanoma) | TGI (LOX IMVI melanoma) | TGI (CCRF-CEM leukemia) | TGI (SK-MEL-2 melanoma) | TGI (SF-268 CNS) | TGI (NCI-H226 lung) | TGI (HCC-2998 colon) | TGI (HL-60(TB) leukemia) | TGI (SF-295 CNS) | TGI (RXF 393 renal) | TGI (MOLT-4 leukemia) | TGI (SNB-78 CNS) | TGI (IGROV1 ovarian) | TGI (OVCAR-8 ovarian) | TGI (HOP-62 NSCLC) | TGI (A549 NSCLC) | TGI (UACC-62 melanoma) | TGI (SK-MEL-5 melanoma) | TGI (SNB-75 CNS) | TGI (NCI-H23 lung) | TGI (M14 melanoma) | TGI (DMS 114 small cell lung) | TGI (MALME-3M melanoma) | TGI (KM20L2 colon) | TGI (DLD-1 colon) | TGI (SF-539 CNS) | TGI (SK-MEL-28 melanoma) | TGI (HCT-15 colon) | TGI (OVCAR-4 ovarian) | TGI (CAKI-1 renal) | TGI (KM12 colon) | TGI (COLO 205 colon) | TGI (HT29 colon) | TGI (U251 CNS) | TGI (EKVX NSCLC) | TGI (SW-620 colon) | TGI (SNB-19 CNS) | TGI (NCI-H522 lung) | TGI (DMS 273 small cell lung) | TGI (SR leukemia) | TGI (ACHN renal) | TGI (A498 renal) | TGI (OVCAR-3 ovarian) | TGI (K-562 leukemia) | TGI (SK-OV-3 ovarian) | TGI (RXF-631 renal) | TGI (OVCAR-5 ovarian) | TGI (TK-10 renal) | TGI (SN12C renal)
